Experiments:
[1] = tested on: Pseudomonas aeruginosa PAO1; experiment: Effects of citronellol on the growth of Pseudomonas aeruginosa PAO1 (growth curve, OD600, Bioscreen C); assay type: cell-based
Procedure: (§1) Preparation of PAO1[(Pseudomonas aeruginosa) PAO1] bacterial suspension: a culture solution of Pseudomonas aeruginosa PAO1 in an exponential growth phase was sampled, centrifuged, washed once with a PBS buffer, resuspended in PBS, and diluted to 10^8 CFU/mL to obtain the PAO1 bacterial suspension.
An LB culture medium and citronellol […] were added to test tubes respectively, and the PAO1 bacterial suspension in the exponential growth phase was inoculated to reach a total volume of 10 mL respectively. The bacterial concentration of PAO1 was each 10^6′ CFU/mL, and the concentration of citronellol was 0 (control), 0.313 μL/mL, 0.625 μL/mL, 1.25 μL/mL, and 2.5 μL/mL, respectively. Samples from several test groups were added to a honeycomb culture plate dedicated to an automatic growth curve analyzer (Bioscreen C), and 350 μL of culture solution was added to each well, with three parallel for each test group. The honeycomb culture plate was placed in the automatic growth curve analyzer, and cultured over shaking at 37° C. for 3 days, and OD600 was measured every hour. Taking OD600 as the ordinate and a culture time as the abscissa, the growth curve of PAO1 under the action of citronellol was drawn to study the effect of the citronellol on the growth of PAO1. The results were shown as in FIG. 1.

[2] = tested on: key genes of a quorum-sensing system of Pseudomonas aeruginosa and virulence genes regulated thereby (PAO1 cells); experiment: Effects of citronellol on the expression of key quorum-sensing genes and virulence genes regulated thereby (real-time fluorescent quantitative PCR); assay type: cell-based; conditions: 1.25 μL/mL citronellol for 5 h
Procedure: as §1
The PAO1 bacterial suspension in a logarithmic growth phase was added to 50 mL of sterile LB liquid culture medium to reach a final concentration of 10^6 CFU/mL for the bacterial solution. Citronellol (β-citronellol) was added to reach the final concentrations of 0 (three biological replicates in the control group were named A1, A2, and A3, respectively) and 1.25 μL/mL (three biological replicates in the test groups were named B1, B2, B3). Each group was cultured at 37° C. and 180 rpm for 5 h, and centrifuged to collect bacteria, which were then quick-frozen at −80° C. for later use.
Total RNAs were extracted from the bacteria by a Trizol (Thermo Fisher Scientific) kit.
After extraction, the purity of the RNAs were detected with an ultra-micro spectrophotometer (Implen, Munich, Germany). An A260/A280 value of each RNA sample should be between 1.8 and 2.0. Reverse transcription and real-time fluorescent quantitative PCR amplification were carried out by using a PrimeScript RT Master Mix kit (Takara, Dalian, China) and an ETC 811 PCR instrument (Eastwin Life Sciences, Inc.). A q-PCR reaction system included Takara SYBR Premix Ex TaqII (Tli RNaseH Plus) (Code No. RR820A), and PCR procedures included: pre-denaturation at 95° C. for 30 s; and denaturation at 95° C. for 5 s and annealing at 60° C. for 34 s, 40 cycles. Based on 10 gene sequences published on the website of GenBank, primers for q-PCR were designed by using software Primer Premier 5.0, and at the same time, a 16S rRNA gene was used as an internal reference gene.

**Q.** For CC(C)=CCCC(C)CCO (stereo not drawn) [citronellol, β-citronellol], which “time point when the absorbance value of the culture solution differs greatly (time to maximum absorbance)” value ([1]; 0.313 μL/mL) is on record?
**A.** The value was 26 h.

**Q.** What about the “time point when the absorbance value of the culture solution differs greatly (time to maximum absorbance)” value ([1]; 0.625 μL/mL) of the same compound?
**A.** Its value is 37 h.

**Q.** And the “time point when the absorbance value of the culture solution differs greatly (time to maximum absorbance)” value ([1]; 1.25 μL/mL)?
**A.** Its value is 39 h.

**Q.** And the “time point when the absorbance value of the culture solution differs greatly (time to maximum absorbance)” value ([1]; 2.5 μL/mL)?
**A.** Its value is 48 h.

**Q.** And the “inhibitory effect on the growth of PAO1” value ([1]; citronellol at 0.313, 0.625, 1.25 and 2.5 μL/mL, LB, 37° C., 3 days, OD600)?
**A.** The value was “a certain yet weak inhibitory effect”.

**Q.** What about the “difference in lag phase and logarithmic growth phase on the PAO1 growth curves” value ([1]; citronellol treatment groups at different concentrations (0.313-2.5 μL/mL)) of the same compound?
**A.** The value was “no significant difference”.

**Q.** What about the “expression of signaling molecule receptor protein gene lasR” value [2] of the same compound?
**A.** The value was “significantly up-regulated”.

**Q.** What about the “expression of signaling molecule receptor protein gene pqsR” value [2] of the same compound?
**A.** The value was “significantly down-regulated”.

**Q.** What about the “expression of signaling molecule synthase gene lasI” value [2] of the same compound?
**A.** The value was “significantly up-regulated”.

**Q.** And the “expression of signaling molecule synthase gene pgsA” value [2]?
**A.** The value was “significantly down-regulated”.

**Q.** And the “transcription level of lasA” value [2]?
**A.** The value was “up-regulated, but with a less significant change”.

**Q.** And the “transcription level of signaling molecule receptor protein gene rhIR” value [2]?
**A.** Its value is “significantly up-regulated”.

**Q.** And the “transcription level of signaling molecule synthase gene rhII” value [2]?
**A.** The value was “changes a little”.

**Q.** What about the “transcription level of toxA” value [2] of the same compound?
**A.** The value was “significantly up-regulated”.

**Q.** What about the “transcription of virulence gene chiC” value [2] of the same compound?
**A.** The value was “inhibited”.

**Q.** What about the “transcription of virulence gene lasB” value [2] of the same compound?
**A.** The value was “inhibited”.

**Q.** What about the “transcription of virulence gene phzM” value [2] of the same compound?
**A.** The value was “inhibited”.

**Q.** What about the “transcription of virulence gene psIB” value [2] of the same compound?
**A.** Its value is “inhibited”.

From patent US11807668B2, “Use of citronellol in preparing preparation for promoting expression of virulence gene Toxa of Pseudomonas aeruginosa” (priority 2021, dated 2023)
